Test results: ChEMBL document CHEMBL1201862, “PubChem BioAssay data set” (2004)
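Growth conditions: 96-well plates. Treatment: test compound, 48 hours, 5 concentrations. Analysis: linear interpolation between bracketing concentrations; unreached endpoints set to highest concentration. The concentration for 50% growth inhibition is given as GI50.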 Calls of active or inactive are those of the source. No stated cut-off is given here; in the data, active = GI50 up to about 1.1 µM and inactive = higher.

Experiments:
Test in all cases: NCI anticancer screen, dose series, 48 h
[1] = system: A549
[2] = system: HCT-15
[3] = system: HL-60
[4] = system: HT-29
[5] = system: MOLT-4
[6] = system: OVCAR-4
[7] = system: OVCAR-8
[8] = system: RPMI-8226
[9] = system: SF-295
[10] = system: SK-MEL-2
[11] = system: SK-MEL-5
[12] = system: SNB-75
[13] = system: SR
[14] = system: UO-31
[15] = system: LOX IMVI
[16] = system: TK-10
[17] = system: MCF7
[18] = system: MDA-MB-435
[19] = system: MDA-N

Compound | GI50 [1] | GI50 [2] [µM] | GI50 [3] | GI50 [4] | GI50 [5] | GI50 [6] | GI50 [7] | GI50 [8] | GI50 [9] | GI50 [10] | GI50 [11] | GI50 [12] | GI50 [13] | GI50 [14] | GI50 [15] | GI50 [16] | GI50 [17] | GI50 [18] | GI50 [19]
CN(CCc1ccccn1)/[N+]([O-])=N/O.CNCCc1ccccn1 | > 100 µM (inactive) | > 100 | > 100 µM (inactive) | > 100 µM (inactive) | > 100 µM (inactive) | > 100 µM (inactive) | > 100 µM (inactive) | > 100 µM (inactive) | > 100 µM (inactive) | > 100 µM (inactive) | > 100 µM (inactive) | > 100 µM (inactive) | > 100 µM (inactive) | > 100 µM (inactive) | – | – | – | – | –
CCCCCCCCCCCCCCCCOCC(CN(C)CCN(C)C)OCCCCCCCCCCCCCCCC (centres undefined) | > 100 µM (inactive) | > 100 | > 100 µM (inactive) | > 100 µM (inactive) | > 100 µM (inactive) | > 100 µM (inactive) | > 100 µM (inactive) | > 100 µM (inactive) | > 100 µM (inactive) | > 100 µM (inactive) | > 100 µM (inactive) | > 100 µM (inactive) | > 100 µM (inactive) | > 100 µM (inactive) | > 100 µM (inactive) | > 100 µM (inactive) | – | – | –
CC(=O)Nc1nnc(S(C)(=O)=O)s1 | > 100 µM (inactive) | > 100 | > 100 µM (inactive) | > 100 µM (inactive) | > 100 µM (inactive) | – | > 100 µM (inactive) | > 100 µM (inactive) | > 100 µM (inactive) | – | – | – | > 100 µM (inactive) | > 100 µM (inactive) | – | > 100 µM (inactive) | > 100 µM (inactive) | > 100 µM (inactive) | > 100 µM (inactive)
Cc1ccc(S(=O)(=O)NC(=O)NC23CC4CC(CC(F)(C4)C2)C3)cc1 | > 100 µM (inactive) | – | > 100 µM (inactive) | > 100 µM (inactive) | > 100 µM (inactive) | – | > 100 µM (inactive) | > 100 µM (inactive) | – | > 100 µM (inactive) | > 100 µM (inactive) | 73.6 µM (inactive) | – | > 100 µM (inactive) | > 100 µM (inactive) | > 100 µM (inactive) | – | – | –
Clc1ccc(-n2nnc(C3=NCCN3)c2-c2ccccc2)cc1 | > 100 µM (inactive) | > 100 | > 100 µM (inactive) | > 100 µM (inactive) | 78.5 µM (inactive) | > 100 µM (inactive) | > 100 µM (inactive) | > 100 µM (inactive) | > 100 µM (inactive) | > 100 µM (inactive) | 86.9 µM (inactive) | 47.3 µM (inactive) | > 100 µM (inactive) | 43.3 µM (inactive) | > 100 µM (inactive) | 66.8 µM (inactive) | – | – | –
C=C(C)C1Cc2c(cc(OC)c3c(=O)c4ccccc4n(C)c23)O1 (centres undefined) | > 100 µM (inactive) | 83.6 | > 100 µM (inactive) | > 100 µM (inactive) | – | > 100 µM (inactive) | > 100 µM (inactive) | > 100 µM (inactive) | > 100 µM (inactive) | > 100 µM (inactive) | > 100 µM (inactive) | 70 µM (inactive) | > 100 µM (inactive) | > 100 µM (inactive) | 47.3 µM (inactive) | > 100 µM (inactive) | – | – | –
COc1cc(CC2c3cc(OC)c(OC)cc3CCN2C)ccc1O (centres undefined) | > 100 µM (inactive) | > 100 | – | > 100 µM (inactive) | > 100 µM (inactive) | > 100 µM (inactive) | > 100 µM (inactive) | > 100 µM (inactive) | > 100 µM (inactive) | > 100 µM (inactive) | > 100 µM (inactive) | > 100 µM (inactive) | – | > 100 µM (inactive) | – | > 100 µM (inactive) | – | – | –
O=C1[C@H]2ON(c3ccccc3)C(c3ccc(Cl)cc3Cl)[C@H]2C(=O)N1c1ccc(Cc2ccc(N3C(=O)[C@@H]4ON(c5ccccc5)C(c5ccc(Cl)cc5Cl)[C@@H]4C3=O)cc2)cc1 (some centres undefined) | > 100 µM (inactive) | > 100 | > 100 µM (inactive) | > 100 µM (inactive) | > 100 µM (inactive) | > 100 µM (inactive) | > 100 µM (inactive) | > 100 µM (inactive) | > 100 µM (inactive) | > 100 µM (inactive) | 73.1 µM (inactive) | > 100 µM (inactive) | 44.1 µM (inactive) | > 100 µM (inactive) | > 100 µM (inactive) | > 100 µM (inactive) | – | – | –
O[C@]12c3ccccc3C1CCCC2N1CCOCC1 (some centres undefined) | > 100 µM (inactive) | > 100 | > 100 µM (inactive) | > 100 µM (inactive) | > 100 µM (inactive) | > 100 µM (inactive) | > 100 µM (inactive) | > 100 µM (inactive) | > 100 µM (inactive) | > 100 µM (inactive) | > 100 µM (inactive) | > 100 µM (inactive) | > 10 µM (inactive) | > 100 µM (inactive) | > 100 µM (inactive) | > 100 µM (inactive) | – | – | –
O=C(c1ccc(Cl)cc1)c1ccc(OCCCOc2ccc(C(=O)c3ccc(Cl)cc3)cc2Cl)c(Cl)c1 | > 100 µM (inactive) | > 100 | > 100 µM (inactive) | > 100 µM (inactive) | > 100 µM (inactive) | > 100 µM (inactive) | > 100 µM (inactive) | > 100 µM (inactive) | > 100 µM (inactive) | > 100 µM (inactive) | > 100 µM (inactive) | > 100 µM (inactive) | > 100 µM (inactive) | – | > 100 µM (inactive) | > 100 µM (inactive) | – | – | –
CSc1n[n+]2c(s1)SCCC2 | 20.5 µM (inactive) | – | > 100 µM (inactive) | > 100 µM (inactive) | > 100 µM (inactive) | > 100 µM (inactive) | > 100 µM (inactive) | – | > 100 µM (inactive) | – | 46.5 µM (inactive) | 42.8 µM (inactive) | > 100 µM (inactive) | 19.8 µM (inactive) | > 100 µM (inactive) | > 100 µM (inactive) | – | – | –
COC(=O)C(C(=O)C(=O)Nc1ccc(OC)cc1[N+](=O)[O-])c1nc2cc(C)c(C)cc2nc1O (centres undefined) | > 100 µM (inactive) | > 100 | > 100 µM (inactive) | > 100 µM (inactive) | – | > 100 µM (inactive) | > 100 µM (inactive) | – | > 100 µM (inactive) | – | > 100 µM (inactive) | > 100 µM (inactive) | > 100 µM (inactive) | > 100 µM (inactive) | > 100 µM (inactive) | > 100 µM (inactive) | – | – | –
CCCCCCCCCCCCCCCCCC(=O)O[C@H](COC(=O)CCCCCCCCCCC)COC(=O)CCCCCCCCCCCCCCC | > 100 µM (inactive) | > 100 | > 100 µM (inactive) | > 100 µM (inactive) | > 100 µM (inactive) | > 100 µM (inactive) | > 100 µM (inactive) | > 100 µM (inactive) | > 100 µM (inactive) | – | > 100 µM (inactive) | – | > 100 µM (inactive) | > 100 µM (inactive) | > 100 µM (inactive) | > 100 µM (inactive) | – | – | –
CC(=O)COC(=O)CC(C)=O | > 100 µM (inactive) | > 100 | > 100 µM (inactive) | > 100 µM (inactive) | > 100 µM (inactive) | > 100 µM (inactive) | > 100 µM (inactive) | > 100 µM (inactive) | > 100 µM (inactive) | > 100 µM (inactive) | – | > 100 µM (inactive) | > 100 µM (inactive) | > 100 µM (inactive) | > 100 µM (inactive) | > 100 µM (inactive) | – | – | –
C/C(=N\N=C(N)N)c1sc(-c2nc(C)c(/C(C)=N/N=C(N)N)s2)nc1C | > 100 µM (inactive) | > 46 | 24.4 µM (inactive) | > 66.8 µM (inactive) | > 57.9 µM (inactive) | > 85.5 µM (inactive) | > 100 µM (inactive) | 39.3 µM (inactive) | > 100 µM (inactive) | > 100 µM (inactive) | > 100 µM (inactive) | > 84.3 µM (inactive) | > 45.6 µM (inactive) | > 91 µM (inactive) | > 42.5 µM (inactive) | > 100 µM (inactive) | – | – | –
NS(=O)(=O)c1ccc(Nc2c3ccccc3nc3c(C(=O)N4CCN(CCO)CC4)cccc23)cc1 | > 100 µM (inactive) | > 100 | 29.2 µM (inactive) | 71.8 µM (inactive) | 40.2 µM (inactive) | > 100 µM (inactive) | > 100 µM (inactive) | – | > 100 µM (inactive) | > 100 µM (inactive) | > 100 µM (inactive) | 52.7 µM (inactive) | 74.1 µM (inactive) | > 100 µM (inactive) | 92.7 µM (inactive) | > 100 µM (inactive) | – | – | –
CCCCCCCCCCSC(=O)NC | 37.8 µM (inactive) | 22.6 | 19 µM (inactive) | 29.7 µM (inactive) | 18.5 µM (inactive) | 36.7 µM (inactive) | 28 µM (inactive) | 21.9 µM (inactive) | 50.1 µM (inactive) | 22.5 µM (inactive) | 20.5 µM (inactive) | 48.8 µM (inactive) | – | 23.4 µM (inactive) | 32.9 µM (inactive) | 37.9 µM (inactive) | – | – | –
COc1cc2c(cc1OC)[C@H]1C(COC(=O)Nc3ccccc3)CN1CC2 (some centres undefined) | > 100 µM (inactive) | > 100 | > 100 µM (inactive) | 74.5 µM (inactive) | 95.5 µM (inactive) | > 100 µM (inactive) | > 100 µM (inactive) | > 100 µM (inactive) | > 100 µM (inactive) | > 100 µM (inactive) | 53.8 µM (inactive) | 18.6 µM (inactive) | 75.3 µM (inactive) | > 100 µM (inactive) | 57.9 µM (inactive) | > 100 µM (inactive) | – | – | –
